A word on the melting point: it is the temperature of the solid-liquid transition.

Data on 88 compounds can be found in a melting point compilation (Tetko et al.; mined from patent text by program, amines drawn as free bases though some values may be those of a salt).

For `CCOC(=O)c1c(-c2ccc(OC)cc2)n2c3c(cccc13)OC(CCN1CCN(c3cc(C)ccn3)CC1)C2` (stereo not drawn), the melting point was 149 to 150 °C.
Compound `N=C(N)Nc1nc(CCCCNc2c(NCCCCc3csc(NC(=N)N)n3)c(=O)c2=O)cs1` yielded a melting point of 228 to 229 °C.
Turning to `CSc1ncc2c(Cl)cc(I)n2n1`, the melting point was 216 to 220 °C.
In turn, `NC(=O)c1c(Cl)c(-c2ccccc2)n2c1CN(S(=O)(=O)Nc1ccc(F)cc1)CC2` yielded a melting point of 183 to 185 °C.
`Cc1nc(CCc2nc3ccc(F)cc3c(=O)n2-c2cccnc2C)cs1`: the melting point was 151 to 153 °C.
In turn, `O=c1cc(-c2ccoc2)c2ccc(O)cc2o1` registered a melting point of 229 to 232 °C.
As for `COc1cccc(COCc2cccc(OC)c2OC)c1OC`, the figure is 58 to 60 °C.
Regarding `O=C(c1cccnc1)N1CCN=C1Nc1c(Cl)cccc1Cl`, the melting point was 173 to 174 °C.
The figure for `O=C(O)Cc1cc(C(=O)c2cc(Cl)ccc2Cl)ccc1O` is 149 °C.
For `COCCOc1ccc(COC(C)=O)c(Oc2ncc(C(F)(F)F)cc2Cl)c1`, the melting point lay in the range of 52.5 to 53 °C.
Compound `CCC(C)(C)Nc1c(NCc2cccc(Cl)c2C)c(=O)c1=O` showed a melting point of 236 to 237 °C.
`CC(C)NCC(O)COc1cccnc1N` (stereo not drawn) returned a melting point of 110 °C.
As to `Cc1c(C2=CCC(c3ccccc3)(N(C)C)CC2)[nH]c2ccccc12` (stereo not drawn), the melting point is 168 to 180 °C.
`C(=C1CN2CCC1CC2)c1ccc(-c2ccccc2)cc1` showed a melting point of 107 °C.
`CCOC(=O)c1nnn(Cc2ccccc2)c1N` displayed a melting point of 153 °C.
In the case of `O=C(Nc1ccncc1)c1ccc(C2=NCCN2)cc1`, the melting point is above 250 °C.
Consider `OCCCCCCCCCCCOc1ccccc1`, for which the melting point lay in the range of 56 to 58 °C.
For `CC(C)(C)c1cc(CCc2ccccc2NC(=O)NC2CCN(Cc3ccccc3)CC2)cc(C(C)(C)C)c1O`, the melting point lay within 79 to 81 °C.
`CC(C)c1c(/C=C/C=O)c(-c2ccccc2)c2c3ccccc3cnn12` had a melting point of 162 to 164 °C.
`COC(=O)Nc1cc(F)c(C#N)cc1F` registered a melting point of 129 °C.
For `CCS(=O)(=O)c1cc(C(=O)NCC2CCCN2CC2=CCCCC2)c(OC)cc1N` (stereo not drawn), the melting point amounted to 192 °C.
In turn, `CCCCc1nc2c(N)nc3ccccc3c2n1CCCCCC(=O)c1ccccc1` came in with a melting point of 149 to 151 °C.
As to `CCCC12CCC(=O)C=C1c1c(cc(OC)c(Cl)c1Cl)C2=O` (stereo not drawn), the melting point lay within 167 to 169 °C.
`CCCCC1C(C(=O)/C=C/c2ccc(OC)cc2)C(=O)CC(c2ccc(OC)cc2)C1[N+](=O)[O-]` (stereo not drawn) gave a melting point of 127 to 129 °C.
As to `CCCn1nc2c(N)nc3ncccc3c2c1CC(C)(C)C(N)=O`, the melting point was in the range of 254 to 257 °C.
As for `NCC1CCc2[nH]c3cc(Cl)c(F)cc3c2C1` (stereo not drawn), the melting point was 180 to 181 °C.
In turn, `Cc1[nH]cnc1CSCCNC(=N)NCCCc1c[nH]cn1` had a melting point of 128 to 131 °C.
Compound `COc1ccc(C(=O)CCC(=O)O)cc1N` gave a melting point of 136 to 137 °C.
In the case of `CCS1(N2CCN(c3ccccc3OC)CC2)C(C)=C(C)c2c1[nH]c(=O)[nH]c2=O` (stereo not drawn), the melting point was 196 to 197 °C.
`O=C(c1cccc(C(=O)c2ccc(F)c([N+](=O)[O-])c2)c1)c1ccc(F)c([N+](=O)[O-])c1` had a melting point of 148 to 149 °C.
As to `Nc1c([N+](=O)[O-])sc2ccc(Br)cc12`, the melting point was in the range of 282 to 284 °C.
As for `Cc1cccc(NC(=O)NC(C(=O)N(c2ccccc2)c2ccccc2)c2ccccc2)c1` (racemic), the figure is 181 °C.
`Cc1oc(-c2ccccc2)nc1COc1cccc(CCCC2SC(=O)NC2=O)c1` (stereo not drawn) registered a melting point of 123 to 124 °C.
Take `CN(CC(=O)c1ccc(N(C)C)cc1)Cc1cc2c(=O)c(C(=O)NCc3ccc(Cl)cc3)cn(C)c2s1`: the melting point stood at 162 °C.
Regarding `CCCCn1c(=O)c2c(ncn2S(=O)(=O)CCCC)n(CCCC)c1=O`, the melting point lay within 55 to 57 °C.
`CCCCCCc1ccc2c(c1)c1cc(CCCCCC)ccc1n2CCN` showed a melting point of 56 °C.
As for `CCCc1c(OCCc2ccc3cc(O)c(O)cc3c2)ccc(C(=O)O)c1O`, the figure is 216 to 218 °C.
Compound `COC(=O)C(=C/c1ccccc1)/C(=C\c1cc(OC)c(OC)c(OC)c1)C(=O)O` showed a melting point of 131 to 133 °C.
As for `CS(=O)(=O)Oc1ccc2c(=O)c(C(=O)O)cn3c2c1CCC3`, the melting point was 270 to 275 °C.
`O=C(O)CCCCCCCNC(=O)c1ccccc1NC(=O)c1ccccc1O` returned a melting point of 124 to 125 °C.
For the compound `CC(C)(C)c1cc(CCC(=O)O)cc(-n2nc3ccc(Sc4ccccc4)cc3n2)c1O`, the melting point lay within 154 to 156 °C.
The figure for `NNC(=O)Cc1cccc(OCCN2CCC(Cc3ccccc3)CC2)c1` is 89 to 91 °C.
`COc1cc2cc(C(C)C)sc2c(Cl)c1Cl` gave a melting point below 37 °C.
For `COc1cc2ncnc(-c3nnn[nH]3)c2cc1OC`, the melting point worked out at 207 °C.
The figure for `Cn1c(-c2ccccc2F)nnc1S(C)(=O)=O` is 128 to 130 °C.
Regarding `CC(C)(C)c1ccc(OC(CC(=O)O)C(=O)O)c(C(C)(C)C)c1` (stereo not drawn), the melting point lay within 177 to 181 °C.
As for `CCC(=O)c1ccc(-c2ccc(Cl)cc2)o1`, the figure is 66 to 68 °C.
For the compound `CC(C)(C)c1ccc2cc3cc(C(C)(C)C)ccc3cc2c1`, the melting point lay within 249 to 253 °C.
In turn, `CN(C)C=Cc1c(N)cc([N+](=O)[O-])cc1[N+](=O)[O-]` registered a melting point of 105 to 107 °C.
As for `CC(=O)Nc1ccccc1Nc1ccc(C(=O)c2ccccc2)cc1`, the figure is 155 to 157 °C; as for `CCCCCN(C)C12CN3CN(CN(C3)C1)C2`, 30 to 31 °C; as for `CC1(C)SCN(C(=O)[C@@H](O)[C@H](Cc2ccccc2)NC(=O)O[C@H]2CCOC2)[C@@H]1C(=O)N[C@H]1CCCc2ccccc21`, 103 to 105 °C.
`Cc1c(C)c(C)c(S(=O)(=O)NCCc2ccc(C(=CCCCC(=O)O)c3cccnc3)cc2)c(C)c1C` yielded a melting point of 158 to 160 °C.
In turn, `C/C(=C\c1ccc(P(=O)(O)O)cc1)c1ccc2c(c1)C(C)(C)CCC2(C)C` yielded a melting point of 208 to 209 °C.
As for `COc1cc(OC)c2c(=O)[nH]c(-c3cc(C)c(OCCN4CCN(C(C)=O)CC4)c(C)c3)nc2c1`, the figure is 213 to 214 °C.
Regarding `Cc1cccc2c1n(CCS(C)(=O)=O)c(=O)n2C(=O)N[C@H](C(=O)N(C)C)C(C)(C)C`, the melting point was determined as 191 °C.
For the compound `Nc1cc(-c2ccc(Cl)cc2)on1`, the melting point fell in the range of 141 to 143 °C.
Compound `CCOCN1C2=C(C(=O)CCC2)C(c2cccc([N+](=O)[O-])c2)C2=C1CCCC2=O` had a melting point of 222 °C.
Turning to `CCCC(=O)c1ccc(OC)c(C(=O)O)c1`, the melting point fell in the range of 105 to 106 °C.
As for `CC(C)c1ccc2c(c1)c(S(=O)(=O)c1ccccc1)c(CC(C)(C)C(=O)O)n2Cc1ccc(Cl)cc1`, the figure is 169 to 172 °C; as for `CC(=O)OCC(COC(C)=O)NC(=O)c1cc(NC(=O)CCl)cc(C(=O)NC(COC(C)=O)COC(C)=O)c1`, 135 to 137 °C; as for `CC12CCC(CC1=O)C(C)(C)O2` (stereo not drawn), 40 to 48 °C.
In turn, `Cc1cc(Nc2ccccc2C(=O)O)n(C)n1` showed a melting point of 210 to 211 °C.
`N[C@@H](Cc1ccc(C(F)(F)F)cc1)[C@H](O)c1ccncc1` (racemic): the melting point is 97 to 98 °C.
As for `CN1CCN(c2ncc3c(=O)c(C(=O)O)cn(Cc4ccccc4)c3n2)CC1`, the figure is 251 to 255 °C; as for `CNc1cc(N2CCCNCC2)ccc1S(=O)(=O)c1cccc(F)c1`, 153 to 154 °C.
As for `Cc1[nH]c2ccccc2c1C1=C(Cl)C(=O)C=C(Cl)C1=O`, the figure is 158 to 159 °C.
As for `Cc1c(Br)cc2c(c1C)OCC2c1ccc(C(C)C)cc1` (stereo not drawn), the figure is 114 to 115 °C; as for `CN(C)c1ccc(NS(=O)(=O)c2cccc(Br)c2)cc1`, 187 to 189 °C.
`CCN(C1CC(C)(C)Oc2ccc(OCc3cc(OC)ccn3)cc21)S(C)(=O)=O` (stereo not drawn) displayed a melting point of 87 to 89 °C.
The compound `O=C(NC(NC(=S)Nc1ccccc1F)C(F)(F)F)c1ccc(Cl)cc1` (stereo not drawn) returned a melting point of 197 to 200 °C.
`COc1ccc(C=CC(=O)N2CCN(c3nc(N)c4cc(OC)c(OC)cc4n3)CC2)cc1` returned a melting point of 265 to 267 °C.
With `CCOP(=O)(Cc1ccc(C(=S)Nc2nc3c(s2)Cc2c(Cl)cccc2-3)cc1)OCC`, the melting point worked out at 180 °C.
Turning to `Nc1c([N+](=O)[O-])cc([N+](=O)[O-])c2c1CCCC2`, the melting point fell in the range of 175 to 176 °C.
The figure for `COC(=O)c1ccc2cc(-c3ccc(OC)c(C45CC6CC(CC(C6)C4)C5)c3)ccc2c1` is 221 to 227 °C; for `C[C@@H](NC(=O)[C@@H](NC(=O)[C@H](C/C=C/c1ccc(-c2ccccc2)c(F)c1)CC(=O)OC(C)(C)C)C(C)(C)C)c1ccccc1` it is 165 to 168 °C; for `CC(C)c1cc(Oc2ccc(Cl)cc2)nc(C(C)C)c1NC(=S)NC(C)(C)C` it is 165 to 167 °C.
The figure for `Fc1ccc(CNc2nc(-n3cnc4ccccc43)nc(-n3cnc4ccccc43)n2)cc1` is 296 to 298 °C; for `CCc1nn(-c2c(Cl)cc(C(F)(F)F)cc2Cl)c(Cl)c1-c1nc(C#N)c(C#N)[nH]1` it is 75 to 78 °C.
As to `Cc1c(NC(=O)c2ccc(OCC3CCCO3)cc2)ccc2cc(CNCC(C)(C)O)cnc12` (stereo not drawn), the melting point is 138 °C.
`COc1cc2c(cc1Br)CC=C2CCNC(=O)C(F)(F)F` yielded a melting point of 126 to 129 °C.
Regarding `CCOC(=O)Nc1ccc(OC)c(OC)c1C=O`, the melting point was in the range of 86 to 88 °C.
With `COc1ccccc1C=CC(=O)CC(=O)C=Cc1ccccc1OC`, the melting point was in the range of 121 to 123 °C.
Consider `CC(=O)Nc1cc(C(F)(F)F)ccc1S(=O)CC#N` (stereo not drawn), for which the melting point is 149 to 151 °C.
The figure for `Cn1cc(C(=O)NCc2ccc(Cl)cc2)c(=O)c2cc(C(C)(C)CCO)ccc21` is 135 to 138 °C; for `CCCc1cc(Cl)c2oc(C(=O)OCC)c(C)c2c1O` it is 165 to 166 °C; for `COc1cc(Nc2nccc(Oc3ccccc3)n2)cc(OC)c1OC` it is 149 °C.
Take `CCOC(=O)c1ccc2occ(-c3ccc(SC)cc3)c2n1`: the melting point lay within 88 to 89 °C.
